The results in this text go back to paper PMC4220016, “The binding characteristics and orientation of a novel radioligand with distinct properties at 5-HT3A and 5-HT3AB receptors” (Neuropharmacology, 2014).

Where “and” joins values, the source holds several entries; their conditions need not be identical. Equal entries are not always repeated. Where two headings read alike, the source gives them in different places.

The target in assay [1] is T1, 5-HT3A receptor D189C (Homo sapiens, UniProt P46098, D184C).
T1 construct: expressed in transfected cells; host or cells: HEK 293
Briefly: Saturation binding of [^3H]VUF10166 at 5-HT3A receptor mutant. Particulars: Loop B, read-out: Kd (nM) Mean ± SEM. Here is the method: (§1) Mutagenesis was performed using the QuikChange method (Agilent Technologies Inc., California, USA) on human 5-HT3A cDNA (accession number: P46098) cloned into pcDNA3.1 (Invitrogen, Paisley, UK). Cysteine residues were substituted for amino acids throughout each of the binding loops A–E (Fig. 1). To facilitate comparisons with previous work, we use the numbering of the equivalent residues in the mouse 5-HT3A subunit; for human numbering 5 should be subtracted from each residue number.
(§2) All data were analysed using GraphPad Prism 4.03.

For assay [2], the target named is T2, 5-HT3A receptor E129C (Homo sapiens, UniProt P46098, E124C).
T2 construct: expressed in transfected cells; host or cells: HEK 293
The assay is described as above. The note with it: Loop A, read-out: Kd (nM) Mean ± SEM. Here is the method: as §1, §2

In assay [3] the target is T3, 5-HT3A receptor I139C (Homo sapiens, UniProt P46098, I134C).
T3 construct: expressed in transfected cells; host or cells: HEK 293
Described as above. Particulars: I139C, Loop E; read-out: Kd (nM) Mean ± SEM. Here is the method:
as §1, §2

Assay [4] addresses T4, 5-HT3A receptor I71C (Homo sapiens, UniProt P46098, I66C).
T4 construct: expressed in transfected cells; host or cells: HEK 293
The assay is described as above. Particulars: I71C; read-out: Kd (nM) Mean ± SEM. The protocol: as §1, §2

For assay [5], the target named is T5, 5-HT3A receptor K112C (Homo sapiens, UniProt P46098, K107C).
T5 construct: expressed in transfected cells; host or cells: HEK 293
The assay is described as above. The note with it: K112C; read-out: Kd (nM) Mean ± SEM. The protocol:
as §1, §2

Assay [6] addresses T6, 5-HT3A receptor N128C (Homo sapiens, UniProt P46098, N123C).
T6 construct: expressed in transfected cells; host or cells: HEK 293
Described as above. Particulars: N128C, Loop A; read-out: Kd (nM) Mean ± SEM. The protocol:
as §1, §2

The target of assay [7] is T7, 5-HT3A receptor N232C (Homo sapiens, UniProt P46098, N227C).
T7 construct: expressed in transfected cells; host or cells: HEK 293
Described as above. The note with it: N232C, Loop C; read-out: Kd (nM) Mean ± SEM. Here is the method:
as §1, §2

Assay [8] deals with T8, 5-HT3A receptor Q151C (Homo sapiens, UniProt P46098, Q146C).
T8 construct: expressed in transfected cells; host or cells: HEK 293
Described as above. The note with it: Q151C, Loop E; read-out: Kd (nM) Mean ± SEM. Here is the method: as §1, §2

For assay [9], the target named is T9, 5-HT3A receptor R145C (Homo sapiens, UniProt P46098, R140C).
T9 construct: expressed in transfected cells; host or cells: HEK 293
The description is as above. Particulars: R145C, Loop E; read-out: Kd (nM) Mean ± SEM. The protocol:
as §1, §2

Assay [10] addresses T10, 5-HT3A receptor R58C (Homo sapiens, UniProt P46098, R53C).
T10 construct: expressed in transfected cells; host or cells: HEK 293
The description is as above. The note with it: read-out: Kd (nM) Mean ± SEM. Here is the method:
as §1, §2

In assay [11] the target is T11, 5-HT3A receptor R92C (Homo sapiens, UniProt P46098, R87C).
T11 construct: expressed in transfected cells; host or cells: HEK 293
The description is as above. The note with it: R92C, Loop D; read-out: Kd (nM) Mean ± SEM. Here is the method: as §1, §2

For assay [12], the target named is T12, 5-HT3A receptor S114C (Homo sapiens, UniProt P46098, S109C).
T12 construct: expressed in transfected cells; host or cells: HEK 293
The description is as above. Particulars: S114C; read-out: Kd (nM) Mean ± SEM. The protocol:
as §1, §2

For assay [13], the target named is T13, 5-HT3A receptor T179C (Homo sapiens, UniProt P46098, T174C).
T13 construct: expressed in transfected cells; host or cells: HEK 293
Described as above. The note with it: Loop B, read-out: Kd (nM) Mean ± SEM. Here is the method: as §1, §2

For assay [14], the target named is T14, 5-HT3A receptor W183C (Homo sapiens, UniProt P46098, W178C).
T14 construct: expressed in transfected cells; host or cells: HEK 293
The assay is described as above. Particulars: Loop B, read-out: Kd (nM) Mean ± SEM. The protocol: as §1, §2

For assay [15], the target named is T15, 5-HT3A receptor W90C (Homo sapiens, UniProt P46098, W85C).
T15 construct: expressed in transfected cells; host or cells: HEK 293
Described as above. The note with it: Loop D, read-out: Kd (nM) Mean ± SEM. The protocol: as §1, §2

Assay [16] has as its target T16, 5-HT3A receptor Y141C (Homo sapiens, UniProt P46098, Y136C).
T16 construct: expressed in transfected cells; host or cells: HEK 293
The assay is described as above. Particulars: Loop E, read-out: Kd (nM) Mean ± SEM. The protocol:
as §1, §2

Assay [17] has as its target T17, 5-HT3A receptor Y143C (Homo sapiens, UniProt P46098, Y138C).
T17 construct: expressed in transfected cells; host or cells: HEK 293
The description is as above. Particulars: Loop E, read-out: Kd (nM) Mean ± SEM. The protocol: as §1, §2

Assay [18] concerns the target T18, 5-HT3A receptor Y234C (Homo sapiens, UniProt P46098, Y229C).
T18 construct: expressed in transfected cells; host or cells: HEK 293
Described as above. Particulars: Loop C, read-out: Kd (nM) Mean ± SEM. The protocol:
as §1, §2

For assay [19], the target named is T19, 5-HT3AB receptors (Homo sapiens, UniProt O95264+P46098).
T19 sequence (P46098 24-478): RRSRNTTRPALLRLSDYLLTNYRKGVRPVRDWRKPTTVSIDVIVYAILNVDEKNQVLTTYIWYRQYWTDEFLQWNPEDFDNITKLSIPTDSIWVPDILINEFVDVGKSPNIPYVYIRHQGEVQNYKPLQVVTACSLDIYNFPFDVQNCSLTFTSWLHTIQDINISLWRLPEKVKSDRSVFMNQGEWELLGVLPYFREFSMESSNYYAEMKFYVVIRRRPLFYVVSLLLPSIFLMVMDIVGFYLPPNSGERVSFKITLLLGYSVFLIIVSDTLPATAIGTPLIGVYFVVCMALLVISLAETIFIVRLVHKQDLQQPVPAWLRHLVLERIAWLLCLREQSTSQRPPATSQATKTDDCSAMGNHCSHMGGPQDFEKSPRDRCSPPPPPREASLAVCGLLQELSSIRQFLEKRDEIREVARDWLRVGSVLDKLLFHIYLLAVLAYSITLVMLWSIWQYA
T19 sequence (O95264 22-441): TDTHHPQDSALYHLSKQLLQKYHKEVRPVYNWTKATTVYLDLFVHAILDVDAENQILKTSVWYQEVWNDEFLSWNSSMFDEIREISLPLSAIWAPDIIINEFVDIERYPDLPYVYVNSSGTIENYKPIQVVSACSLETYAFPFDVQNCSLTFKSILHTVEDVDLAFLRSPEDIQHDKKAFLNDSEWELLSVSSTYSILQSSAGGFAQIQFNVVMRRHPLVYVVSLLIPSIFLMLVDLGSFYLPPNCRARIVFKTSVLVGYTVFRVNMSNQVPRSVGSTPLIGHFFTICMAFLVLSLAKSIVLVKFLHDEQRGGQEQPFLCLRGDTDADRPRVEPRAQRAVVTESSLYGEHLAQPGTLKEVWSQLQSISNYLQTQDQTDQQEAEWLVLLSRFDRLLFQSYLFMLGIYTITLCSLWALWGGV
Put plainly: Kinetic measurements (association, dissociation) at 5-HT3AB receptors. It counts as binding. Also noted: expressed in transfected cells; host or cells: HEK 293. Particulars: from kinetic rates, Equ (4), read-out: Kd(nM) (kon/koff).

T12 sequence (P46098 24-478 S109C): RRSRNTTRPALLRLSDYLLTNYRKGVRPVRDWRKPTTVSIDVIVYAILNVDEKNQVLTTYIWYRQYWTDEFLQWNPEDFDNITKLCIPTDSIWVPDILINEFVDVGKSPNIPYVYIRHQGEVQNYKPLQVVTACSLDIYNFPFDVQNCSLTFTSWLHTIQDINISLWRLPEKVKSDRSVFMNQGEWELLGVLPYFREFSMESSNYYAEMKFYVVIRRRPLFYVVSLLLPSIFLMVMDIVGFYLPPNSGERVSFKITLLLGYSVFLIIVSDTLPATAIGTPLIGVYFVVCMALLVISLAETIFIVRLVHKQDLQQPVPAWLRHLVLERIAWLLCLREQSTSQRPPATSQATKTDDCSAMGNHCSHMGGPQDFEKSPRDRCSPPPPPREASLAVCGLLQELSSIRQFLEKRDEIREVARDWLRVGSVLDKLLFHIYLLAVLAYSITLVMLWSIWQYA
T3 sequence (P46098 24-478 I134C): as the sequence (P46098 24-478 S109C) above, with C86S, I111C counted along it
T9 sequence (P46098 24-478 R140C): as the sequence (P46098 24-478 S109C) above, with C86S, R117C counted along it
T7 sequence (P46098 24-478 N227C): as the sequence (P46098 24-478 S109C) above, with C86S, N204C counted along it
T15 sequence (P46098 24-478 W85C): as the sequence (P46098 24-478 S109C) above, with W62C, C86S counted along it
T18 sequence (P46098 24-478 Y229C): as the sequence (P46098 24-478 S109C) above, with C86S, Y206C counted along it
T2 sequence (P46098 24-478 E124C): as the sequence (P46098 24-478 S109C) above, with C86S, E101C counted along it
T14 sequence (P46098 24-478 W178C): as the sequence (P46098 24-478 S109C) above, with C86S, W155C counted along it
T16 sequence (P46098 24-478 Y136C): as the sequence (P46098 24-478 S109C) above, with C86S, Y113C counted along it
T11 sequence (P46098 24-478 R87C): as the sequence (P46098 24-478 S109C) above, with R64C, C86S counted along it
T5 sequence (P46098 24-478 K107C): as the sequence (P46098 24-478 S109C) above, with K84C, C86S counted along it
T13 sequence (P46098 24-478 T174C): as the sequence (P46098 24-478 S109C) above, with C86S, T151C counted along it
T4 sequence (P46098 24-478 I66C): as the sequence (P46098 24-478 S109C) above, with I43C, C86S counted along it
T17 sequence (P46098 24-478 Y138C): as the sequence (P46098 24-478 S109C) above, with C86S, Y115C counted along it
T10 sequence (P46098 24-478 R53C): as the sequence (P46098 24-478 S109C) above, with R30C, C86S counted along it
T6 sequence (P46098 24-478 N123C): as the sequence (P46098 24-478 S109C) above, with C86S, N100C counted along it
T1 sequence (P46098 24-478 D184C): as the sequence (P46098 24-478 S109C) above, with C86S, D161C counted along it
T8 sequence (P46098 24-478 Q146C): as the sequence (P46098 24-478 S109C) above, with C86S, Q123C counted along it

Regarding `CN1CCN(c2nc3ccccc3nc2Cl)CC1` [[^3H]VUF10166] [2-chloro-3-(4-[^3H]methylpiperazin-1-yl)quinoxaline], the Kd is greater than 10 nM in [1]; greater than 10 nM in assay [2]; 1.55 ± 0.15 nM in assay [3]; 0.23 ± 0.05 nM in assay [4]; 0.13 ± 0.03 nM in assay [5]; 0.7 ± 0.1 nM in [6]. Also, the Kd in assay [7] was 1.9 ± 0.36 nM; in assay [8], 1.82 ± 0.19 nM; in [9], 0.96 ± 0.35 nM; in assay [10], greater than 10 nM; in [11], 0.88 ± 0.19 nM; in assay [12], 0.21 ± 0.09 nM. Moreover, the Kd in assay [13], in [14], in assay [15], in [16], in assay [17] and in [18] was greater than 10 nM each time. Besides, the Kd in assay [19] (first component) is 0.38 nM; in [19] (second component (>3 nM)), 22 nM and 22.4 nM.
